Results reported in patent US20250064957A1, “EXATECAN DERIVATIVES, LINKER-PAYLOADS, AND CONJUGATES AND THEREOF” (priority 2021, published 2025).

Experiments:
Type in all cases: cell-based
[1] = system: high HER2 tumor cell line SK-BR-3; assay: Effect of small molecules on SK-BR-3 cell proliferation (CellTiter-Glo); details: SK-BR-3, 120 h incubation, relative biological activity with Dxd as control sample
Procedure: Study Purpose: In this experiment, cell viability was detected using CellTiter-Glo to evaluate the effects of the small molecule compounds on the proliferation of a high HER2 tumor cell line SK-BR-3, and to analyze the effects of the small molecule compounds on the proliferation of tumor cells.
• (1) Microscopic examination of cells • (2) Digestion: digested using 2 mL 0.25% trypsin for 3 minutes; • (3) Centrifuge: 1000 rpm for 5 min; • (4) Cell counting • A. Cell dilution: • B. Cell plating: in 100 μl/well • C. Incubation: 37° C., 5% CO2, overnight
• (1) Microscopic examination • (2) Drug preparation: • A. Preparation of Buffer for preparation of samples: the desired amount of Buffer for preparation of samples was prepared using the culture medium (10% FBS) for the testing cells; • B. Sample preparation: the sample was diluted from the first concentration to the desired concentration in a 96-well deep-well Plate.
Positive control Puromycin: A stock solution of 2.5 mg/ml was used, and diluted with the cell medium. A dilution of 250-fold was preformed, and then a dilution of 2-fold was preformed when applying the compounds to reach the testing concentration 5 μg/ml for puromycin. • (3) Application of the compounds: for each concentration of the diluted series, the compound was applied in triplicate. In 100 μl/well. • (4) After the drug was added, the cells were incubated in the incubator for 120 h.
• (1) Preparation of detection reagents: CellTiter-Glo Luminescent Cell Viability Assay detection reagent was allowed to warm to room temperature with protection from light • (2) Cell preparation: The cells to be tested were taken out from the incubator and equilibrated at room temperature (25° C.) 30 min. • (3) ATP detection: Discard the culture medium and 100 μl/well DMEM was added, 50 μl/hole CTG was added into 96-well plate, protected from light using aluminum foil and oscillated using a vortex oscillator at room temperature of 200 rpm for 10 min. • (4) Detection procedure: After setting up the procedure, the black-wall clear-bottom plate was placed in the instrument without its cover. • (5) Data acquisition.
GraphPad software was used to process the data. […] If necessary, the relative biological activity of sample A, i.e., ratio activity was calculated. Dxd was used as the control sample for the ratio activity calculation.
Cell proliferation inhibition rate (%)=([…])/(luminescence value of blank control group−luminescence value of puro group)×100; wherein the puro group refers to the group treated with puromycin
R^2 Value ≥0.950; CV % between parallel pores ≤30%.

[2] = system: NCI-N87 HER2-high cell line; assay: Effect of HER2-targeting conjugates on cell proliferation (CellTiter-Glo), NCI-N87; details: NCI-N87, 120 h
Procedure: (§1) Study Purpose: Cell viability was detected by CellTiter-Glo assay to evaluate the effects of the ADCs on the proliferation of two high HER2 tumor cell lines SK-BR-3, NCI-N87 and a HER2-negative tumor cell line MDA-MB-468, and to analyze the effects of the ADCs on the proliferation of tumor cells.
(§2) Positive control Puromycin: A stock solution of 10 mg/ml was used, and diluted with the cell medium. A dilution of 100-fold was preformed, and then a dilution of 10-fold was preformed when applying the compounds to reach the testing concentration 5 μg/ml for puromycin. • (4) Application of the compounds: for each concentration of the diluted series, the compound was applied in triplicate. […]

[3] = system: SK-BR-3 HER2-high cell line; assay: Effect of HER2-targeting conjugates on cell proliferation (CellTiter-Glo), SK-BR-3; details: SK-BR-3, 120 h
Procedure: as §1, §2

SMILES	Ratio activity (%) [1] [%]	IC50 [2] [nM]	IC50 [3] [nM]
CC[C@@]1(O)C(=O)OCc2c1cc1n(c2=O)Cc2c-1nc1cc(F)c(Br)c3c1c2[C@H](NC(=O)C[C@H](C)O)CC3 [C600]	0.62	–	–
CC[C@@]1(O)C(=O)OCc2c1cc1n(c2=O)Cc2c-1nc1cc(F)c(Br)c3c1c2[C@H](NC(=O)C[C@@H](C)O)CC3 [C602]	0.29	–	–
CC[C@@]1(O)C(=O)OCc2c1cc1n(c2=O)Cc2c-1nc1cc(F)c(Cl)c3c1c2[C@@H](NC(=O)[C@H](O)C(F)(F)F)CC3 [C626]	0.54	–	–
CC[C@@]1(O)C(=O)OCc2c1cc1n(c2=O)Cc2c-1nc1cc(F)c(Cl)c3c1c2[C@@H](NC(=O)CCCO)CC3 [C679]	0.49	–	–
CC[C@@]1(O)C(=O)OCc2c1cc1n(c2=O)Cc2c-1nc1cc(F)c(Cl)c3c1c2[C@H](N)CC3 [C731]	0.82	–	–
CC[C@@]1(O)C(=O)OCc2c1cc1n(c2=O)Cc2c-1nc1cc(F)c(C)c3c1c2[C@@H](NC(=O)CO)CC3 [Dxd]	1	4.68	1.47
